# Measurements as given in patent publication US7153958B2, “Farnesyl transferase inhibiting benzoheterocyclic derivatives” (Janssen Pharmaceutica N.V., priority 2000, dated 2006).
row,SMILES,melting point [°C]
1,CN1C(=O)CN=C(c2cccc(Cl)c2)c2cc(C(N)(c3ccc(Cl)cc3)c3cncn3C)ccc21 (stereo not drawn),213
2,Cn1cncc1C(N)(c1ccc(Cl)cc1)c1ccc2c(c1)C(c1cccc(Cl)c1)=NCc1nnnn1-2 (stereo not drawn),218
3,Cn1cncc1C(c1ccc(Cl)cc1)c1ccc2c(c1)C(c1cccc(Cl)c1)SCC(=O)N2 (stereo not drawn),187
4,Cn1cncc1C(O)(c1ccc(Cl)cc1)c1ccc2c(c1)C(c1cccc(Cl)c1)SCc1nnnn1-2 (stereo not drawn),217
5,Cn1cncc1C(c1ccc(Cl)cc1)c1ccc2c(c1)C(c1cccc(Cl)c1)SCc1nnnn1-2 (stereo not drawn),162
6,Cn1cncc1C(c1ccc(Cl)cc1)c1ccc2c(c1)C(c1cccc(Cl)c1)SCCC(=O)N2 (stereo not drawn),199
7,Cn1cncc1C(O)(c1ccc(Cl)cc1)c1ccc2c(c1)C(c1cccc(Cl)c1)=NCC(=O)N2 (stereo not drawn),200
8,Cn1cncc1C(O)(c1ccc(Cl)cc1)c1ccc2c(c1)C(c1cccc(Cl)c1)=NCc1nnnn1-2 (stereo not drawn),240
9,O=C1CN=C(c2ccccc2)c2cc(C(c3ccc(Cl)cc3)n3ccnc3)ccc2N1 (racemic),144
10,"Cn1cncc1C(O)(c1ccc(Cl)cc1)c1ccc2c(c1)C(c1cccc(Cl)c1)OCC(=S)N2 (stereo not drawn) [Example B7, 5-(3-chlorophenyl)-7-[(4-chlorophenyl)hydroxy(1-methyl-1H-imidazol-5-yl)methyl]-1,5-dihydro-4,1-benzoxazepine-2(3H)-thione]",> 300

# More lines, now with the values ahead:
row,melting point [°C],SMILES
1,218,CN1C(=O)CSC(c2cccc(Cl)c2)c2cc(C(N)(c3ccc(Cl)cc3)c3cncn3C)ccc21 (stereo not drawn)
2,210,Cn1cncc1C(O)(c1ccc(Cl)cc1)c1ccc2c(c1)C(c1cccc(Cl)c1)SCC(=O)N2 (stereo not drawn)
3,245,Cn1cncc1C(O)(c1ccc(Cl)cc1)c1ccc2c(c1)C(c1cccc(Cl)c1)SCC(=O)N2CC1CC1 (stereo not drawn)
4,186,CN1C(=O)CSC(c2cccc(Cl)c2)c2cc(C(O)(c3ccc(Cl)cc3)c3cncn3C)ccc21 (stereo not drawn)
5,226,CN1C(=O)CN=C(c2cccc(Cl)c2)c2cc(C(O)(c3ccc(Cl)cc3)c3cncn3C)ccc21 (stereo not drawn)
6,260,"Cn1cncc1C(O)(c1ccc(Cl)cc1)c1ccc2c(c1)C(c1cccc(Cl)c1)OCC(=O)N2 (stereo not drawn) [Example B1, 5-(3-chlorophenyl)-7-[(4-chlorophenyl)hydroxy(1-methyl-1H-imidazol-5-yl)methyl]-1,5-dihydro-4,1-benzoxazepin-2(3H)-one]"
7,160,"CN1C(=O)COC(c2cccc(Cl)c2)c2cc(C(O)(c3ccc(Cl)cc3)c3cncn3C)ccc21 (stereo not drawn) [Example B3, 5-(3-chlorophenyl)-7-[(4-chlorophenyl)hydroxy(1-methyl-1H-imidazol-5-yl)methyl]-1,5-dihydro-1-methyl-4,1-benzoxazepin-2(3H)-one]"
8,208,"CN1C(=O)CNC(c2cccc(Cl)c2)c2cc(C(O)(c3ccc(Cl)cc3)c3cncn3C)ccc21 (stereo not drawn) [Example B5, 5-(3-chlorophenyl)-7-[(4-chlorophenyl)hydroxy(1-methyl-1H-imidazol-5-yl)methyl]-1,3,4,5-tetrahydro-1-methyl-2H-1,4-benzodiazepin-2-one]"
